Laboratory results: patent US20060069132A1, “Azolecarboxamide herbicides” (priority 2004, published 2006)

Columns and labels:
Test in all cases: Test F pre-/postemergence herbicide test
Settings in all cases: 125 g ai/ha
annual blugrass = format: in vivo, Poa annua
From the text: (§1) Seeds of plant species selected from annual blugrass (Poa annua L.), blackgrass (Alopecurus myosuroides Huds.), catchweed bedstraw (Gallium aparine L.), common chickweed (Stellaria media (L.) Vill./Cyr.), downy bromegrass (Bromus tectorum L.), green foxtail (Setaria viridis (L.) Beauv.), Italian ryegrass (Lolium multiflorum Lam.), kochia (Kochia scoparia (L.). Schrad.), lambsquarters (Chenopodium album L.), littleseed canarygrass (Phalaris minor Retz.), pigweed (Amaranthus retroflexus L.), Russian thistle (Salsola kali L. ssp. Ruthenica (Iljin) Soo), wild buckwheat (Polygonum convolvulus L.), wild mustard (Sinapis arvensis L.), wild oat (Avena fatua L.), windgrass (Apera spica-venti (L.) Beauv.), winter barley (Hordeum vulgare L.), and wheat (Triticum aestivum L.) were planted and treated preemergence with test chemicals formulated in a non-phytotoxic solvent mixture which included a surfactant.
(§2) At the same time, plants selected from these crop and weed species were treated with postemergence applications of some of the test chemicals formulated in the same manner. Plants ranged in height from 2 to 18 cm (1- to 4-leaf stage) for postemergence treatments. Treated plants and controls were maintained in a greenhouse for 12 to 14 days, after which time all species were compared to controls and visually evaluated. Plant response ratings, summarized in Table F, are based on a scale of 0 to 100 where 0 is no effect and 100 is complete control. A dash (-) response means no test result.

wheat = format: in vivo, Triticum aestivum
From the text: as §1, §2

blackgrass = format: in vivo, Alopecurus myosuroides
From the text: as §1, §2

pigweed = format: in vivo, Amaranthus retroflexus
From the text: as §1, §2

winter barley = format: in vivo, Hordeum vulgare
From the text: as §1, §2

downy bromegrass = format: in vivo, Bromus tectorum
From the text: as §1, §2

kochia = format: in vivo, Kochia scoparia
From the text: as §1, §2

wild mustard = format: in vivo, Sinapis arvensis
From the text: as §1, §2

common chickweed = format: in vivo, Stellaria media
From the text: as §1, §2

lambsquarters = format: in vivo, Chenopodium album
From the text: as §1, §2

littleseed canarygrass = format: in vivo, Phalaris minor
From the text: as §1, §2

wild oat = format: in vivo, Avena fatua
From the text: as §1, §2

Structure (SMILES): CCc1nn(C(C)(C)C)cc1C(=O)Nc1cc(C(=O)N(CC)CC)ccc1F [Compound 223]
- Plant response rating (0-100), Bluegrass (annual blugrass; Postemergence): 50
- Plant response rating (0-100), Bluegrass (annual blugrass; Preemergence): 100
- Plant response rating (0-100), Wheat (wheat; Postemergence): 0
- Plant response rating (0-100), Wheat (wheat; Preemergence): 0
- Plant response rating (0-100), Blackgrass (blackgrass; Postemergence): 60
- Plant response rating (0-100), Blackgrass (blackgrass; Preemergence): 70
- Plant response rating (0-100), Pigweed (pigweed; Postemergence): 65
- Plant response rating (0-100), Pigweed (pigweed; Preemergence): 100
- Plant response rating (0-100), Barley, Winter (winter barley; Postemergence): 0
- Plant response rating (0-100), Barley, Winter (winter barley; Preemergence): 25
- Plant response rating (0-100), Bromegrass, Downy (downy bromegrass; Postemergence): 20
- Plant response rating (0-100), Bromegrass, Downy (downy bromegrass; Preemergence): 50
- Plant response rating (0-100), Kochia (kochia; Postemergence): 75
- Plant response rating (0-100), Kochia (kochia; Preemergence): 75
- Plant response rating (0-100), Mustard, Wild (wild mustard; Postemergence): 65
- Plant response rating (0-100), Mustard, Wild (wild mustard; Preemergence): 100
- Plant response rating (0-100), Chickweed (common chickweed; Postemergence): 60
- Plant response rating (0-100), Chickweed (common chickweed; Preemergence): 100
- Plant response rating (0-100), Lambsquarters (lambsquarters; Postemergence): 65
- Plant response rating (0-100), Lambsquarters (lambsquarters; Preemergence): 95
- Plant response rating (0-100), Canarygrass (littleseed canarygrass; Postemergence): 40
- Plant response rating (0-100), Canarygrass (littleseed canarygrass; Preemergence): 50
- Plant response rating (0-100), Oat, Wild (wild oat; Postemergence): 35
- Plant response rating (0-100), Oat, Wild (wild oat; Preemergence): 70
